Test results reported in patent US7276631B2, “Cyclopentylamine and cyclohexylamine derivatives as NK-1/SSRI antagonists” (Bristol-Myers Squibb Company, priority 2004, dated 2007).

Legend:
[1] = molecular target: T1, neurokinin-1 (NK-1) receptor (Homo sapiens, UniProt P25103); assay: NK-1 binding (competition with [125I] Substance P, U373 cell membranes); details: [125I] Substance P displacement
T1 construct: a human glioblastoma-astrocytoma cell line that endogenously express the neurokinin-1 (NK-1) receptor; endogenous in cells; host or cells: U373 human glioblastoma-astrocytoma cells (membranes)
Protocol: U373 cells, a human glioblastoma-astrocytoma cell line that endogenously express the neurokinin-1 (NK-1) receptor, were grown in a monolayer culture at 37° C. in 5% CO2 and fed with Minimum Essential Medium (MEM) supplemented with 10% fetal bovine serum. Membranes were prepared as follows: Cells were washed twice with ice-cold phosphate-buffered saline (pH 7.4) and then incubated for 5 to 10 minutes with ice-cold 10 mM Tris buffer (pH 7.4) containing 5 mM EDTA. Cells were removed from plates, homogenized, and centrifuged at 32,000×g for 20 minutes. The resulting supernatant was discarded, and the pellet resuspended by homogenization in 50 mM Tris buffer (pH 7.4) containing 1 mM EDTA and centrifuged at 32,000×g for 20 minutes. The resulting supernatant was discarded, and the pellet resuspended by homogenization in NK-1 binding assay buffer (50 mM Tris-HCL (pH 7.4), 3 mM MnCl2, 200 μg/ml BSA, 5 μg/ml chymostatin, 40 μg/ml bacitracin and 4 μg/ml leupeptin).
On the day of an experiment the membrane preparation was thawed, homogenized and diluted with NK-1 binding assay buffer to the appropriate concentration. Competition binding assays were performed in 96 well plate format by incubating membranes (5-10 ug/well) with Bolton Hunter labeled [^125I] Substance P, at a concentration of […], and concentrations of drugs ranging from 10000 to 0.01 nM. Samples were incubated for 30 min at 20° C. then filtered through GF/B glass fiber filters (pretreated with 1% polyethyleneimine and 0.3% Triton X-100) using a Brandel cell harvester. The filters were then washed with 10 ml ice cold 50 mM Tris-HCL (pH 7.4) containing 3 mM MgCl2. Non-specific was defined in the presence of 2 μM L-733,060 (a non-peptide NK-1 antagonist). Amount of radioligand bound in the presence and absence of competitor was analyzed by plotting (−)log drug concentration versus the amount of radioligand specifically bound. The midpoint of the displacement curve (IC50, nM), signifies the potency. Ki values were calculated using the method of Cheng and Prusoff [Cheng, Y.-C. and Prusoff, W. H., Biochemical Pharmacology, Vol. 22, pp. 3099-3108, Pergamon Press (1973)].

[2] = molecular target: T2, human serotonin transporters (Homo sapiens, UniProt P31645); assay: Serotonin transporter binding assay ([3H]-citalopram, HEK-hSERT cell membranes); details: [3H]-citalopram displacement, read-out: SERT IC50
T2 construct: expressed in transfected cells; host or cells: HEK-293 cells stably expressing hSERT (membranes)
Protocol: HEK-293 cells that stably express human serotonin transporters (HEK-hSERT cells) were grown at 37° C. in 5% CO2 as a monolayer in medium consisting of EMEM supplemented with 10% fetal bovine serum and G418 sulfate (500 μg/ml). To prepare membranes for radioligand binding experiments, cells were rinsed twice with phosphate-buffered saline (138 mM NaCl, 4.1 mM KCl, 5.1 mM Na2PO4, 1.5 mM […], 11.1 mM glucose, pH 7.4). Cells were transferred from plates to polypropylene tubes (16×100 mm), centrifuged at 1,200×g for 5 min and were frozen at −80° C. until assay. Following centrifugation, pellets were resuspended by homogenization in buffer consisting of 50 mM Tris (pH 7.7 at 25° C.), 120 mM NaCl and 5 mM KCl and then centrifuged at 32,000×g for 10 min. Following centrifugation, supernatants were discarded and pellets were resuspended in buffer consisting of 50 mM Tris (pH 7.4 at 25° C.), 150 mM NaCl and 5 mM KCl. Membrane homogenates (200 μl/plate) were incubated with 1 nM [^3H]-citalopram (specific activity=85 Ci/mmol) and increasing concentrations of test compounds for 1 hr at 25° C. in a total volume of 250 μl. The assay buffer consisted of 50 mM Tris (pH 7.4 at 25° C.), 120 mM NaCl and 5 mM KCl (pH 7.4 with conc. HCl). Plates were incubated for 1 hr at 25° C., then filtered through 0.5% PEI treated Whatman GF/B filters using a Brandel cell harvester. Filters were washed three times with 3 ml of ice-cold tris wash buffer. Non-specific binding was defined with 10 μM fluoxetine. Amount of radioligand bound in the presence and absence of competitor was analyzed by plotting (−)log drug concentration versus the amount of radioligand specifically bound. The midpoint of the displacement curve (IC50, nM), signifies the potency. Ki values were calculated using the method of Cheng and Prusoff [Cheng, Y.-C. and Prusoff, W. H., Biochemical Pharmacology, Vol. 22, pp. 3099-3108, Pergamon Press (1973)].

T2 sequence (P31645 whole entry): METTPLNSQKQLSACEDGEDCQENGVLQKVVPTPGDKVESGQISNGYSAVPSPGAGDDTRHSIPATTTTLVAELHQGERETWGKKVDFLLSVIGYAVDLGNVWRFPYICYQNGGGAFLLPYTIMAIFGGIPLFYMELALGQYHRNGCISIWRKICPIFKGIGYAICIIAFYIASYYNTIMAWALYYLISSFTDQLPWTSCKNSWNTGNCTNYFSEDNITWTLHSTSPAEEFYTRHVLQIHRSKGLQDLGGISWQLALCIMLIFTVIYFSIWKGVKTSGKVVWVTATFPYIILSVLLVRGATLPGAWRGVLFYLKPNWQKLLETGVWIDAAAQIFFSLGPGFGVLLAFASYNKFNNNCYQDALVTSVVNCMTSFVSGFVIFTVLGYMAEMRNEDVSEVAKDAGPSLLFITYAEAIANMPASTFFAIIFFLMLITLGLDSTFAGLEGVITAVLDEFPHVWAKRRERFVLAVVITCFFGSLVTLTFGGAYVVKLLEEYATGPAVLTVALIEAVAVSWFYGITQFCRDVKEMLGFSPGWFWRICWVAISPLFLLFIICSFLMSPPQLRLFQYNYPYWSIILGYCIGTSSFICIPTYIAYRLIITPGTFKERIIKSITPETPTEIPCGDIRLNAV
T1 sequence (P25103 whole entry): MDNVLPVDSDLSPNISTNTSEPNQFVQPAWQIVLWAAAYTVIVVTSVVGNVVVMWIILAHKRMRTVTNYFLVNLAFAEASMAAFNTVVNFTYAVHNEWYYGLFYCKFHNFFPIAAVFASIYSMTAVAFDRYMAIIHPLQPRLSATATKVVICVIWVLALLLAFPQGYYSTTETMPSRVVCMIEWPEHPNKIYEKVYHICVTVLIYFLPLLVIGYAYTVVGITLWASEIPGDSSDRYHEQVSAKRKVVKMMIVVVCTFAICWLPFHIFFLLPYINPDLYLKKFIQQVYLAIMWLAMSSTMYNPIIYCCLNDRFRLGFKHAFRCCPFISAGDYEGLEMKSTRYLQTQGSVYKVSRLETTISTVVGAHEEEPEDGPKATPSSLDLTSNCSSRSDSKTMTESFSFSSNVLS

SMILES | IC50 [1] | IC50 [2]
FC(F)(F)c1cc(COCC2(c3ccccc3)CCC(N3CCCCC3)C2)cc(C(F)(F)F)c1 (stereo not drawn) [Example 1, 1-(3-((3,5-Bis(trifluoromethyl)benzyloxy)methyl)-3-phenylcyclopentyl)piperidine] | < 20 nM | 
FC(F)(F)c1cc(COCC2(c3ccccc3)CCC(N3CCCC3)C2)cc(C(F)(F)F)c1 (stereo not drawn) [Example 2, 1-(3-((3,5-Bis(trifluoromethyl)benzyloxy)methyl)-3-phenylcyclopentyl)pyrrolidine] | < 20 nM | 
FC(F)(F)c1cc(COCC2(c3ccccc3)CCC(N3CCOCC3)C2)cc(C(F)(F)F)c1 (stereo not drawn) [Example 3, 4-(3-((3,5-bis(trifluoromethyl)benzyloxy)methyl)-3-phenylcyclopentyl)morpholine] | 20 to 100 nM | 
FC(F)(F)c1cc(COCC2(c3ccccc3)CCC(NC3CC3)C2)cc(C(F)(F)F)c1 (stereo not drawn) [Example 4, 3-((3,5-Bis(trifluoromethyl)benzyloxy)methyl)-N-cyclopropyl-3-phenylcyclopentanamine] | < 20 nM | 
FC(F)(F)c1cc(COCC2(c3ccccc3)CCCC(N3CCOCC3)C2)cc(C(F)(F)F)c1 (stereo not drawn) [Example 16, 4-(3-((3,5-bis(trifluoromethyl)benzyloxy)methyl)-3-phenylcyclohexyl)morpholine] | 100 to 300 nM | 
FC(F)(F)c1cc(COCC2(c3ccccc3)CCCC(N3CCCC3)C2)cc(C(F)(F)F)c1 (stereo not drawn) [Example 17, 1-(3-((3,5-bis(trifluoromethyl)benzyloxy)methyl)-3-phenylcyclohexyl)pyrrolidine] | 100 to 300 nM | 
FC(F)(F)c1cc(COCC2(c3ccccc3)CCCC(N3CCCCC3)C2)cc(C(F)(F)F)c1 (stereo not drawn) [Example 18, 1-(3-((3,5-bis(trifluoromethyl)benzyloxy)methyl)-3-phenylcyclohexyl)piperidine] | 20 to 100 nM | 
CN1CCN(C2CCCC(COCc3cc(C(F)(F)F)cc(C(F)(F)F)c3)(c3ccccc3)C2)CC1 (stereo not drawn) [Example 19, 1-(3-((3,5-bis(trifluoromethyl)benzyloxy)methyl)-3-phenylcyclohexyl)-4-methylpiperazine] | 100 to 300 nM | 

Further lines, results first:

IC50 [1] | IC50 [2] | SMILES
< 20 nM |  | COCCN(C)C1CCC(COCc2cc(C(F)(F)F)cc(C(F)(F)F)c2)(c2ccccc2)C1 (stereo not drawn) [Example 5, 3-((3,5-bis(trifluoromethyl)benzyloxy)methyl)-N-(2-methoxyethyl)-N-methyl-3-phenylcyclopentanamine]
< 20 nM | 20 to 100 nM | CN(C)C1CCC(COCc2cc(C(F)(F)F)cc(C(F)(F)F)c2)(c2ccccc2)C1 (stereo not drawn) [Example 6, 3-((3,5-bis(trifluoromethyl)benzyloxy)methyl)-N,N-dimethyl-3-phenylcyclopentanamine]
< 20 nM | 20 to 100 nM | N[C@H]1CC[C@](COCc2cc(C(F)(F)F)cc(C(F)(F)F)c2)(c2ccccc2)C1 [Example 7, (1S,3R)-3-((3,5-bis(trifluoromethyl)benzyloxy)methyl)-3-phenylcyclopentanamine]
< 20 nM | 100 to 300 nM | N[C@@H]1CC[C@@](COCc2cc(C(F)(F)F)cc(C(F)(F)F)c2)(c2ccccc2)C1 [Example 8, (1R,3S)-3-((3,5-bis(trifluoromethyl)benzyloxy)methyl)-3-phenylcyclopentanamine]
< 20 nM | 20 to 100 nM | N[C@@H]1CC[C@](COCc2cc(C(F)(F)F)cc(C(F)(F)F)c2)(c2ccccc2)C1 [Example 9, (1R,3R)-3-((3,5-bis(trifluoromethyl)benzyloxy)methyl)-3-phenylcyclopentanamine]
< 20 nM | < 20 nM | N[C@H]1CC[C@@](COCc2cc(C(F)(F)F)cc(C(F)(F)F)c2)(c2ccccc2)C1 [Example 10, (1S,3S)-3-((3,5-bis(trifluoromethyl)benzyloxy)methyl)-3-phenylcyclopentanamine]
< 20 nM | 100 to 300 nM | CNC1CCCC(COCc2cc(C(F)(F)F)cc(C(F)(F)F)c2)(c2ccccc2)C1 (stereo not drawn) [Example 11, 3-((3,5-bis(trifluoromethyl)benzyloxy)methyl)-N-methyl-3-phenylcyclohexanamine]
100 to 300 nM |  | CN(C)C1CCCC(COCc2cc(C(F)(F)F)cc(C(F)(F)F)c2)(c2ccccc2)C1 (stereo not drawn) [Example 12, 3-((3,5-bis(trifluoromethyl)benzyloxy)methyl)-N,N-dimethyl-3-phenylcyclohexanamine]
20 to 100 nM | 100 to 300 nM | CCN(CC)C1CCCC(COCc2cc(C(F)(F)F)cc(C(F)(F)F)c2)(c2ccccc2)C1 (stereo not drawn) [Example 13, 3-((3,5-bis(trifluoromethyl)benzyloxy)methyl)-N,N-diethyl-3-phenylcyclohexanamine]
< 20 nM | 100 to 300 nM | CCNC1CCCC(COCc2cc(C(F)(F)F)cc(C(F)(F)F)c2)(c2ccccc2)C1 (stereo not drawn) [Example 14, 3-((3,5-bis(trifluoromethyl)benzyloxy)methyl)-N-ethyl-3-phenylcyclohexanamine]
20 to 100 nM |  | FC(F)(F)c1cc(COCC2(c3ccccc3)CCCC(NC3CC3)C2)cc(C(F)(F)F)c1 (stereo not drawn) [Example 15, 3-((3,5-bis(trifluoromethyl)benzyloxy)methyl)-N-cyclopropyl-3-phenylcyclohexanamine]
